From patent publication US20240228572A1 (i2o Therapeutics, Inc., priority 2020, published 2024)
*1 amine or outer side, *2 acyl side, *3 side chain or, on linkers, in order; H or OH if unused. Where a SMILES comes first, the peptide text is derived from it. Side-chain parts run from the residue outwards. [ ]: non-standard residue; d: D form. The star is where a group is joined. C20 diacid = O=C(O)CCCCCCCCCCCCCCCCCCC(=O)*; γGlu = O=C(O)[C@H](CCC(=O)[*:2])N[*:1]; AEEA = NCCOCCOCC(=O)O; Aib = CC(C)(N)C(=O)O

How the values were obtained:
[1] = Metabolic stability in rat kidney brush border membranes (kBBM); type: in vitro ADME; settings: 1 mcM peptide, 50 mcg protein/mL, 37° C., pH 7.4, read-out: kBBM t½ (converted)
Procedure: Brush border membranes from rat and human kidney tissue were prepared via centrifugation and stored at −70° C. Thawed stocks of rat or human kBBM were diluted to the appropriate concentration in 25 mM HEPES buffer (pH 7.4) containing 1% casein and aliquoted into a 96-well plate. The kBBM solutions were pre-warmed for 10 minutes at 37° C. Reactions were initiated by the addition of test peptide (1 mcM final concentration) also dissolved in 25 mM HEPES buffer (pH 7.4) containing 1% casein. The final concentration of kBBM in each incubation was 50 mcg protein/mL. Reactions were maintained at 37° C. in a shaking water bath. At 0, 0.25, 0.5, 1.0, 2.0, and 4.0 h post-initiation, 30 mcL of the reaction mixture was removed and placed into a 96-well plate containing 120 mcL of ice-cold methanol containing 2.5% formic acid. Quenched samples were centrifuged at 2178×g for 10 min and then a portion of the supernatants were transferred to a clean 96-well plate and diluted 1:1 with water.

[2] = Stability in subcutaneous (SC) tissue homogenates, rat; type: in vitro ADME; settings: subcutaneous (SC) tissue homogenate, pH 7.4, read-out: (H)SC tissue stability t½ (converted)
Procedure: (§1) In vitro incubations in subcutaneous (SC) tissue homogenates were used to characterize the ability of peptides to resist pre-systemic degradation by proteases and peptidases after SC administration. In vivo nonclinical studies have shown that peptidase activity in the SC space can limit the bioavailability of a peptide after SC administration. Peptides with high SC bioavailability are stable in this assay, while peptides with low SC bioavailability are unstable in this assay.
(§2) Human SC tissue was homogenized in cold 25 mM HEPES buffer (pH 7.4, 10-fold volume based on sample weight), and then filtered through a double layer of cheesecloth. The filtrates were aliquoted, flash frozen on a methanol/dry ice bath and stored at −80° C. The protein concentration of each pooled batch was determined using the BCA protein assay. Thawed stocks of human SC tissue homogenates were diluted to 1.0 mg protein/mL in 25 mM HEPES buffer (pH 7.4) and aliquoted into a 96-well plate. The diluted SC homogenates were pre-warmed for 10 minutes at 37° C. Reactions were initiated by the addition of test peptide (10 mcM final concentration) also dissolved in 25 mM HEPES buffer (pH 7.4). Reactions were maintained at 37° C. in a shaking water bath. […] Samples were analyzed by UPLC-MS/MS.

[3] = Stability in subcutaneous (SC) tissue homogenates, monkey; type: in vitro ADME; settings: subcutaneous (SC) tissue homogenate, pH 7.4, read-out: (H)SC tissue stability t½ (converted)
Procedure: as §1, §2

[4] = Stability in human subcutaneous (SC) tissue homogenates; type: in vitro ADME; settings: subcutaneous (SC) tissue homogenate, 10 mcM peptide, 1.0 mg protein/mL, 37° C., pH 7.4, read-out: (H)SC tissue stability t½ (converted)
Procedure: as §1, §2

serum albumin [5] = molecular target: serum albumin (Macaca fascicularis, UniProt A2V9Z4); assay: Fraction unbound (fu) in plasma by surface plasmon resonance, monkey; type: in vitro ADME; settings: SPR binding to serum albumin
Chain of serum albumin (Macaca fascicularis, UniProt A2V9Z4) (A2V9Z4 25-608): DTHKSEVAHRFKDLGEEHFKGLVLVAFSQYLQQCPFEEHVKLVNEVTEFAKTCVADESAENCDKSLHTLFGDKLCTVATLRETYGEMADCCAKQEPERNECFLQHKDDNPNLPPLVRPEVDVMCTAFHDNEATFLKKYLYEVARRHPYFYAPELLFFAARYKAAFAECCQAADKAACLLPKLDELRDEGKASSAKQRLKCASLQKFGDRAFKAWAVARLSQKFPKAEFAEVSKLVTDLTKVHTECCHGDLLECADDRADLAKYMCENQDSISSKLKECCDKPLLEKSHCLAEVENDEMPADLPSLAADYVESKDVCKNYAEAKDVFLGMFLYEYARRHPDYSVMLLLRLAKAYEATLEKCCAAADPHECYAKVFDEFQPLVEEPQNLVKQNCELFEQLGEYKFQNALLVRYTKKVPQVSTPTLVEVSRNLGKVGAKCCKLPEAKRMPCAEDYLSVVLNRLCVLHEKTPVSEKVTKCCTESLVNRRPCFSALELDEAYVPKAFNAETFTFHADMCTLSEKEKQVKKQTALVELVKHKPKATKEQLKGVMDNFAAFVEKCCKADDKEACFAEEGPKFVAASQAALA
Procedure: (§3) Conventional methods of measuring plasma protein binding, such as equilibrium dialysis, ultrafiltration and ultracentrifugation, are not reliable with peptides because of their tendency to adsorb to the surface of plastic tubing, dialysis membranes and molecular weight cut-off filters. As a result, the extent to which acylated peptides bind to serum albumin was evaluated using surface plasmon resonance (SPR).

serum albumin [6] = molecular target: serum albumin (Homo sapiens, UniProt P02768); assay: Fraction unbound (fu) in plasma by surface plasmon resonance, human; type: in vitro ADME; settings: SPR binding to serum albumin
Chain of serum albumin (Homo sapiens, UniProt P02768) (P02768 25-609): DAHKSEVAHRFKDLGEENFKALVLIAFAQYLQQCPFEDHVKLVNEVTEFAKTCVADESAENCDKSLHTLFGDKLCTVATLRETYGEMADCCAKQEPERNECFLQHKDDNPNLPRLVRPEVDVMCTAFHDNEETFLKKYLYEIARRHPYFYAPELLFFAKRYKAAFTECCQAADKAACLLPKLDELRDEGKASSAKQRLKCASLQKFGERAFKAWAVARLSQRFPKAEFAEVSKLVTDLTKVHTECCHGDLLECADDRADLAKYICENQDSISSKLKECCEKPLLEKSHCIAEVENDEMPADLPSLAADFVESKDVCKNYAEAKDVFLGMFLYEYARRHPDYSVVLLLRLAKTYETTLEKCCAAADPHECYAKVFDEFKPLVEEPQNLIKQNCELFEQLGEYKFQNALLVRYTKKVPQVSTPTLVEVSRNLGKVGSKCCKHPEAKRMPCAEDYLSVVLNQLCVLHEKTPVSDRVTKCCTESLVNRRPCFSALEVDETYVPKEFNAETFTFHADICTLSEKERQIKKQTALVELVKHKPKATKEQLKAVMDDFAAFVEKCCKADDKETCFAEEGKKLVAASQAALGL
Procedure: as §3

[7] = Subcutaneous bolus injection pharmacokinetics / bioavailability in rats; type: in vivo; settings: rat, plasma; SC bolus 0.11 mg/kg, male Sprague-Dawley rats
Procedure: Peptides were dissolved in sterile saline and administered to non-fasted male Sprague-Dawley rats (n=3 per group) at a dose of 0.1 mg/kg via a single bolus injection into the subcutaneous space between the scapulae. Blood samples (approximately 250 μL) were collected for pharmacokinetic analysis via a jugular vein cannula at 0.083, 0.25, 0.5, 1, 2, 4, 8, 24, 48, 72, 96, and 120 hr post-dose into microtainer tubes containing K2EDTA as anticoagulant and 25 μL of a protease inhibitor cocktail. Plasma was prepared by centrifugation and stored at −80° C. until analysis.
A 70 μL aliquot of each plasma sample was placed into to a 96-well plate. To each well was added 210 μL of 0.1% TFA in 2:1 ethanol:acetonitrile containing an appropriate internal standard. Plates were vortex mixed for 10 min at 1300 rpm, and then centrifuged for 10 min at 500× g. Supernatants (210 μL) were placed into a clean 96-well plate and evaporated under a nitrogen stream at 45° C. Residues were reconstituted in 80 μL of 20% acetonitrile (aq) containing 0.1% formic acid.
All calibration standards were prepared in control rat plasma containing K2EDTA and protease inhibitor cocktail.
Samples and standards were analyzed by electrospray ionization (ESI) UPLC-MS/MS using a system consisting of a CTC HTS PAL auto-injector (Leap, Carrboro, NC), an Agilent Infinity 1290 system with column oven (Palo Alto, CA), a Valco switching valve (Houston, TX), and a Sciex TripleTOF® 5600 mass spectrometer (Framingham, MA). Samples were injected onto a 2.1×50 mm reverse phase C18 analytical column, typically a Waters CORTECS UPLC C18+, 1.6 μm (Waters Corporation, Milford, MA) or similar. […] Initial conditions consisted of 95% A and 5% B. The organic component was increased to 95% B over a period of 3-4 minutes, depending on the peptide. Typical flow rates were 550 μL/min. The column temperature was held constant at 45° C. Peptides were quantified by monitoring one or more product ions produced from a multiply charged parent ion.

CC(C)C[C@H](NC(=O)[C@H](Cc1ccc(O)cc1)NC(=O)[C@H](CCCCN)NC(=O)[C@H](CO)NC(=O)[C@H](Cc1ccc(O)cc1)NC(=O)[C@H](CC(=O)O)NC(=O)[C@H](CO)NC(=O)[C@@H](NC(=O)[C@H](Cc1ccccc1)NC(=O)[C@@H](NC(=O)CNC(=O)[C@H](Cc1c[nH]cn1)NC(=O)[C@H](CO)NC(=O)[C@@H](N)Cc1ccc(O)cc1)[C@@H](C)O)[C@@H](C)O)C(=O)N[C@@H](CC(=O)O)C(=O)NC(C)(C)C(=O)N[C@@H](CCCCN)C(=O)N[C@@H](Cc1ccc(O)cc1)C(=O)N[C@@H](C)C(=O)N[C@@H](CCC(N)=O)C(=O)N[C@@H](CCCCNC(=O)CC[C@H](NC(=O)CC[C@H](NC(=O)COCCOCCNC(=O)CCCCCCCCCCCCCCCCCCC(=O)O)C(=O)O)C(=O)O)C(=O)N[C@@H](Cc1ccccc1)C(=O)N[C@H](C(=O)NC(C)(C)C(=O)N[C@@H](Cc1c[nH]c2ccccc12)C(=O)N[C@@H](CC(C)C)C(=O)N[C@@H](CCC(=O)O)C(=O)N[C@@H](CC(=O)O)C(=O)N[C@@H](CCC(=O)O)C(=O)N1CCC[C@H]1C(=O)N[C@@H](CO)C(=O)N[C@@H](CO)C(=O)NCC(=O)N[C@@H](C)C(=O)N1CCC[C@H]1C(=O)N1CCC[C@H]1C(=O)N1CCC[C@H]1C(=O)N[C@@H](CO)C(=O)O)C(C)C [Compound A6] (H-YSHGTFTSDYSKYLD[Aib]KYAQK([γGlu-γGlu-AEEA-C20 diacid])FV[Aib]WLEDEPSSGAPPPS-OH; N-terminus assumed)
half-life at 1 mcM [1]: 6.6 h
half-life at 10 mcM [2]: 9 h
half-life at 10 mcM [3]: 5 h
half-life at 10 mcM [4]: 10.6 h
fraction unbound (serum albumin [5]): 0.0048
fraction unbound (serum albumin [6]): 0.0072
Cmax [7]: 462 ng/mL
Tmax [7]: 8 to 24 h
bioavailability [7]: 94.9%
half-life [7]: 15.8 h
